Test results published in paper PMC9264404 (Toxicology and applied pharmacology, 2021).
Where two headings read alike, the source gives them in different places.

Columns and labels:
[1] = Pharmacokinetics in mice after oral gavage of 15 mg/kg DBC; format: in vivo, female B6129SF1/J mice
[2] = system: hepatic microsomes of mice; conditions: cited from earlier work
mice = conditions: cited from earlier work
[3] = Pharmacokinetics in human volunteers after oral microdose of 29 ng [14C]-DBC; format: in vivo
[4] = cited from earlier work
[5] = system: hepatic microsomes of humans; conditions: DBC metabolism, human hepatic microsomes, MM model; cited from earlier work
[6] = DBC metabolism, mouse hepatic microsomes, MM model
[7] = average of human volunteers, 29 ng DBC oral

For `Oc1c(O)c(O)c2c(cc3ccc4cccc5c6ccccc6c2c3c45)c1O` [DBC-tetrols, dibenzo[def,p]chrysene-11,12,13,14-tetraol], the “mean amount in urine relative to conjugated DBC-11,12-diol” value ([1]; 15 mg/kg DBC oral, 0–16 hr collection interval) was 98.9 times.
For `c1ccc2c(c1)cc1ccc3cccc4c5ccccc5c2c1c34` [DBC, dibenzo[def,p]chrysene], the Km [2, 6] is listed as 6.63 µM, the Vmax [2, 6] is listed as 19.38 nmol/min/mg and the “DBC metabolism rate, mice compared to humans” value ([2]; after scaling to body weight to the ¾ power) is listed as 3 fold. The transplacental carcinogenicity (mice; B6129F1/J mice, offspring of mothers exposed to DBC) was “cause T-cell lymphoma, lung adenoma and liver lesions in offspring”, the “potency in producing lung adenomas relative to benzo[a]pyrene (B[a]P)” value (mice) was 100 times and the “tumors after intraperitoneal exposure” value (mice; mice exposed intraperitoneally) was “lung and liver cancer”. For the same molecule, the “tumors after dermal exposure” value (mice; mice, dermal exposure) was “cause skin tumors”, the “tumors after intramammary exposure” value (mice; mice, intramammary exposure) was “promote mammary tumors” and the “% Excreted” value ([3]; Average of volunteers, urine) was 1.39%. The “peak concentration relative to peak DBC-11,12-diol concentration” value [3, 7] was 10 times, the “% Excreted” value ([3]; volunteer V5, urine) was 2.11% and the “% Excreted” value ([3]; volunteer V6, urine) was 1.48%. For the same molecule, the “% Excreted” value ([3]; volunteer V8, urine) was 1.20%, the “% Excreted” value ([3]; volunteer V9, urine) was 0.70% and the “% Excreted” value ([3]; volunteer V10, urine) was 1.93%. For the same molecule, the “% Excreted” value ([3]; volunteer V13, urine) was 0.92%, the “Peak concentration in blood” value ([1]; 15 mg/kg DBC oral) was “around 3.5 μM” and the “concentration in blood at 48 hr post dosing” value ([1]; 15 mg/kg DBC oral) was “approximately 0.0075 μM”. For the same molecule, the “levels detected in urine” value ([1]; 15 mg/kg DBC oral) was “trace levels”, the “time of peak concentration in blood” value ([1]; 15 mg/kg DBC oral) was 3 to 5 h and the “percent of administered dose absorbed (amount of dose recovered in urine)” value ([1]; 15 mg/kg oral, used as model parameter) was 0.311. The “Peak concentration in blood” value [4, 7] was 74.8 fM, the “time of peak concentration in blood” value [4, 7] was “around 1 hr” and the “Eliminated Total (sum of all DBC metabolites excreted in urine)” value (“Eliminated Total” for short) ([4]; volunteer V5, oral dose 25.2 ng) was 0.532 ng 14C-DBCeq. The “Eliminated Total” value ([4]; volunteer V6, oral dose 29.8 ng) was 0.441 ng 14C-DBCeq, the “Eliminated Total” value ([4]; volunteer V8, oral dose 23.9 ng) was 0.285 ng 14C-DBCeq and the “Eliminated Total” value ([4]; volunteer V9, oral dose 28.5 ng) was 0.200 ng 14C-DBCeq. For the same molecule, the “Eliminated Total” value ([4]; volunteer V10, oral dose 25.6 ng) was 0.494 ng 14C-DBCeq, the “Eliminated Total” value ([4]; volunteer V13, oral dose 28.5 ng) was 0.263 ng 14C-DBCeq and the “Peak concentration in blood” value ([4]; volunteers 8 and 9 (both), 29 ng DBC oral) was ~ 100 fM. The “time of peak concentration in blood” value ([4]; volunteers 8 and 9, 29 ng DBC oral) was 1 to 2 h, the Km [5] was 0.915 µM and the Vmax [5] was 0.27 nmol/min/mg.
